Assay [1] concerns the target T1, β5i (Homo sapiens, UniProt P20618+P28062).
T1 construct: protease activity associated with the proteasome complex in cultured cells; endogenous in cells; host or cells: Ramos cells
As to the kind of experiment: Cell-Based Proteasome Activity/Selectivity Assay (Ramos cells), substrate (ANW)2Rh110. To be noted: highest concentration tested 20 μM, read-out: Ic50 ramos:ac-(anw)2-r110. A digest of the protocol: (§1)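 Ramos cells (5×10^4/well in DPBS) were treated with 4-fold compound dilutions (top 20 μM) for 30 min at 37 °C. A 2× mix of 0.025% digitonin, 20 μM of each Rh110 substrate and 0.5 M sucrose was added, then incubated 120 min at room temperature. Rh110 fluorescence was read at 500/519 nm.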

Assay [2] has as its target T2, β5c (Homo sapiens, UniProt P20618+P28074).
T2 construct: protease activity associated with the proteasome complex in cultured cells; endogenous in cells; host or cells: Ramos cells
Put plainly: Cell-Based Proteasome Activity/Selectivity Assay (Ramos cells), substrate (WLA)2Rh110. To be noted: highest concentration tested 20 μM. In a few lines: as §1

Assay [3] has as its system β2c/2i. As to the kind of experiment: Cell-Based Proteasome Activity/Selectivity Assay (Ramos cells), substrate (KQL)2Rh110. To be noted: highest concentration tested 20 μM. In a few lines:
as §1

In assay [4] the target is T3, β1i (Homo sapiens, UniProt P28065+P40306).
T3 construct: protease activity associated with the proteasome complex in cultured cells; endogenous in cells; host or cells: Ramos cells
As to the kind of experiment: Cell-Based Proteasome Activity/Selectivity Assay (Ramos cells), substrate (PAL)2Rh110. To be noted: highest concentration tested 20 μM. A digest of the protocol: as §1

Assay [5] addresses T4, β1c (Homo sapiens, UniProt P28072+Q99436).
T4 construct: protease activity associated with the proteasome complex in cultured cells; endogenous in cells; host or cells: Ramos cells
As to the kind of experiment: Cell-Based Proteasome Activity/Selectivity Assay (Ramos cells), substrate (LLE)2 Rh110. As to conditions: highest concentration tested 20 μM. A digest of the protocol: as §1

Assay [6] deals with IP10 level in PBMCs stimulated with CpG Type A. Put plainly: PBMC IP-10 Assay. It counts as cell-based. To be noted: CpG Type A 2.5 μM. A digest of the protocol:
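Human PBMCs (~2×10^5/well) preincubated 60 min at 37° C. with titrated compound (1% DMSO final), then stimulated with CpG Type A (ODN 2216) at 2.5 μM final overnight. Supernatant IP-10 quantified by AlphaLISA; viability of remaining cells by ATP luminescence.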

Molecules are shown by their SMILES.

The results in this text go back to US20150274777A1, “KETOAMIDE IMMUNOPROTEASOME INHIBITORS” (HOFFMANN-LA ROCHE INC., priority 2012, published 2015).

Take `C[C@H](NC(=O)OCc1ccccc1)C(=O)N[C@@H](Cc1c[nH]c2ccccc12)C(=O)N[C@@H](Cc1ccccc1)C(=O)C(=O)N(C)Cc1ccccc1` [Example 38, {(S)-1-[(S)-1-[(S)-1-Benzyl-2-(benzyl-methyl-carbamoyl)-2-oxo-ethylcarbamoyl]-2-(1H-indol-3-yl)-ethylcarbamoyl]-ethyl}-carbamic acid benzyl ester]: the IC50 in assay [1] is 1.21 µM; in assay [2], 4.11 µM; in assay [3], > 20 µM; in assay [4], > 20 µM; in assay [5], > 20 µM. The EC50 in assay [6] stood at 10.1 µM.

On to `COc1ccc(C[C@H](NC(=O)[C@H](C)NS(=O)(=O)c2ccccc2)C(=O)N[C@@H](Cc2ccccc2)C(=O)C(=O)NCc2ccccc2)cc1` [Example 39, (S)-3-[(S)-2-((S)-2-Benzenesulfonylamino-propionylamino)-3-(4-methoxy-phenyl)-propionylamino]-N-benzyl-2-oxo-4-phenyl-butyramide], for which the IC50 is 0.029 µM in assay [1]; 1.38 µM in assay [2]; > 20 µM in assay [3]; 0.605 µM in assay [4]; > 20 µM in assay [5]. The compound also had an EC50 in assay [6] of 2.32 µM.

For `COc1ccc(C[C@H](NC(=O)[C@H](C)NS(=O)(=O)c2ccccc2C)C(=O)N[C@@H](Cc2ccccc2)C(=O)C(=O)NCc2ccccc2)cc1` [Example 40, (S)—N-Benzyl-3-{(S)-3-(4-methoxy-phenyl)-2-[(S)-2-(toluene-2-sulfonylamino)-propionylamino]-propionylamino}-2-oxo-4-phenyl-butyramide], the 50% inhibitory concentration (IC50) was 0.046 µM in assay [1]; 1.29 µM in assay [2]; > 20 µM in assay [3]; 1.14 µM in assay [4]; 14.7 µM in assay [5]. The same compound gave an EC50 in assay [6] of 1.83 µM.

As for `COc1ccc(C[C@H](NC(=O)[C@H](C)NC(=O)CCc2ccnn2C)C(=O)N[C@@H](Cc2ccccc2)C(=O)C(=O)NCc2ccccc2)cc1` [Example 41, (S)—N-Benzyl-3-((S)-3-(4-methoxy-phenyl)-2-{(S)-2-[3-(2-methyl-2H-pyrazol-3-yl)-propionylamino-]propionylamino}-propionylamino)-2-oxo-4-phenyl-butyramide], the IC50 in assay [1] is 0.026 µM; in assay [2], 0.385 µM; in assay [3], > 20 µM; in assay [4], 0.697 µM; in assay [5], 18.4 µM. The compound also came in with an EC50 in assay [6] of 1.5 µM.

On to `C[C@H](NC(=O)C1Cc2ccccc2C1)C(=O)N[C@@H](CCc1ccccc1)C(=O)N[C@@H](Cc1ccccc1)C(=O)C(=O)NCc1ccccc1` [Example 42, Indan-2-carboxylic acid {(S)-1-[(S)-1-((S)-1-benzyl-2-benzylcarbamoyl-2-oxo-ethylcarbamoyl)-3-phenyl-propylcarbamoyl]-ethyl}-amide], for which the IC50 was 0.004 µM in assay [1]; 0.014 µM in assay [2]; > 20 µM in assay [3]; 0.968 µM in assay [4]; 18.1 µM in assay [5]. In assay [6], this compound displayed an EC50 of 0.379 µM.

For the compound `C[C@H](NC(=O)C1Cc2ccccc2C1)C(=O)N[C@@H](Cc1ccccc1)C(=O)N[C@@H](Cc1ccccc1)C(=O)C(=O)NCc1ccccc1` [Example 43, Indan-2-carboxylic acid {(S)-1-[(S)-1-((S)-1-benzyl-2-benzylcarbamoyl-2-oxo-ethylcarbamoyl)-2-phenyl-ethylcarbamoyl]-ethyl}-amide], the IC50 is 0.003 µM in assay [1]; 0.192 µM in assay [2]; > 20 µM in assay [3]; 0.257 µM in assay [4]; 18.3 µM in assay [5]. The EC50 in assay [6] worked out at 0.784 µM.

The term IC50 denotes the concentration that gives 50% inhibition. Usually EC50 stands for the concentration at which the effect is half-maximal.
